Each structure is given as a SMILES string.

In one experiment the test system is HL-60 cells. Put plainly: Cell viability assay (CellTiter-Glo). Format: cell-based. The settings on record: Homo sapiens, 72 h incubation, 6-point serial dilution. As for the experimental part:
HL-60 cells were seeded at a density of 7000 cells per well in 96-well culture plates (Corning 3903) with IMDM and treated with test compounds following a 6-point serial dilution. RPMI 1640 (0.1% DMSO) was used as control for each well. After 72 h incubation, cell viability was determined using the CellTiter-Glo assay kit (Promega, G9242) according to the manufacturer's instructions. The dose-response curves were determined and IC50 values were calculated using the GraphPad Prism software following a nonlinear regression method.
For orientation: Cellular ATP, detected with luciferase, serves as a proxy for viable cell number.

The next experiment deals with T1, GSPT1 protein (Homo sapiens, UniProt P15170+Q96SW2).
T1 construct: endogenous in cells; host or cells: HL-60 cells
Put plainly: GSPT1 degradation assay (western blot) in HL-60 cells. Type of experiment: cell-based. The note with it: GSPT1 protein level, 2h incubation, western blot normalized to beta-Actin; for inhibition at 0.1 µM: 0.1 μM compound; for inhibition at 1 µM: 1 μM compound. The protocol: HL-60 cells (4×10^^6 cells/well) were seeded in 6-well culture plate (Costar, 3516) and treated with a variety of concentrations of test compound. After 2h incubation, cells were collected and lysed. The protein concentration was determined by BCA protein assay kit from Thermo (23227). The GSPT1 protein level was determined by western blots, using GSPT1 polyclonal antibody. Proteins were loaded into each well of the pre-casting gels and subjected to electrophoretic separation by SDS-PAGE. The protein resolved by SDS-PAGE were transferred to PVDF, blocked by 5% skim milk and probed with anti-GSPT1 antibody (Proteintech, 10763-1-AP) or anti-β-actin antibody (CST, 3700S), using following standard western blotting procedure. Blots intensities were quantified using ImageJ software and the intensity of GSPT1 bands were normalized to beta-Actin bands, respectively. The GSPT1 degradation results were then calculated. Reported compound C84971 (see WO2021126974A1 and WO2021126973A1) was used as a reference.
(In general: Immunoblotting shows a protein as a band on a membrane.)

T1 sequence (P15170 whole entry): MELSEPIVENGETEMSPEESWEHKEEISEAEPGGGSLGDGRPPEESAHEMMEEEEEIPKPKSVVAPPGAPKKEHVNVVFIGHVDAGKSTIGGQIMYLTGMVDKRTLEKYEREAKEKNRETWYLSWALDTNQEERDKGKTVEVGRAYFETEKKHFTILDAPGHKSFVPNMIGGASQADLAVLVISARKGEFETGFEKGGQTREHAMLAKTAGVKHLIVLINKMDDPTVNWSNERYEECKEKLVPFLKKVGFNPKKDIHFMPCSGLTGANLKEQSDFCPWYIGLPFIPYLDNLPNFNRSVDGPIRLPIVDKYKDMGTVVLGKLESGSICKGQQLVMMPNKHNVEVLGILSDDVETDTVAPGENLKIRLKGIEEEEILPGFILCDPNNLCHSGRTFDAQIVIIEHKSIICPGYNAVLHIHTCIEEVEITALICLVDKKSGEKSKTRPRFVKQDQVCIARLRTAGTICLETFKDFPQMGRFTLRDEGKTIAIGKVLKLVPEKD
T1 sequence (Q96SW2 whole entry): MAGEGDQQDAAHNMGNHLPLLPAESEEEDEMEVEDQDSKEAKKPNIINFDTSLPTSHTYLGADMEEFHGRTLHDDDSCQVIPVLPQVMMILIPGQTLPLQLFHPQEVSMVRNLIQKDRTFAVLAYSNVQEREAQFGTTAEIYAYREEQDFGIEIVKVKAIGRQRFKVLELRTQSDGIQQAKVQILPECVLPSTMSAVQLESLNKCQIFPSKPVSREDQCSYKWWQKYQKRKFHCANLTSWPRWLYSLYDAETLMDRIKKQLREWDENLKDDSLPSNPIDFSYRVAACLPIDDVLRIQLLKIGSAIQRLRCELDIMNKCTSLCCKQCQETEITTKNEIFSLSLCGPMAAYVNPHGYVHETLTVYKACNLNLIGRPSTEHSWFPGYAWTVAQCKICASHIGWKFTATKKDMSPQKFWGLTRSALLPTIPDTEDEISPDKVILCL
T1 sequence (Q16531 whole entry partner): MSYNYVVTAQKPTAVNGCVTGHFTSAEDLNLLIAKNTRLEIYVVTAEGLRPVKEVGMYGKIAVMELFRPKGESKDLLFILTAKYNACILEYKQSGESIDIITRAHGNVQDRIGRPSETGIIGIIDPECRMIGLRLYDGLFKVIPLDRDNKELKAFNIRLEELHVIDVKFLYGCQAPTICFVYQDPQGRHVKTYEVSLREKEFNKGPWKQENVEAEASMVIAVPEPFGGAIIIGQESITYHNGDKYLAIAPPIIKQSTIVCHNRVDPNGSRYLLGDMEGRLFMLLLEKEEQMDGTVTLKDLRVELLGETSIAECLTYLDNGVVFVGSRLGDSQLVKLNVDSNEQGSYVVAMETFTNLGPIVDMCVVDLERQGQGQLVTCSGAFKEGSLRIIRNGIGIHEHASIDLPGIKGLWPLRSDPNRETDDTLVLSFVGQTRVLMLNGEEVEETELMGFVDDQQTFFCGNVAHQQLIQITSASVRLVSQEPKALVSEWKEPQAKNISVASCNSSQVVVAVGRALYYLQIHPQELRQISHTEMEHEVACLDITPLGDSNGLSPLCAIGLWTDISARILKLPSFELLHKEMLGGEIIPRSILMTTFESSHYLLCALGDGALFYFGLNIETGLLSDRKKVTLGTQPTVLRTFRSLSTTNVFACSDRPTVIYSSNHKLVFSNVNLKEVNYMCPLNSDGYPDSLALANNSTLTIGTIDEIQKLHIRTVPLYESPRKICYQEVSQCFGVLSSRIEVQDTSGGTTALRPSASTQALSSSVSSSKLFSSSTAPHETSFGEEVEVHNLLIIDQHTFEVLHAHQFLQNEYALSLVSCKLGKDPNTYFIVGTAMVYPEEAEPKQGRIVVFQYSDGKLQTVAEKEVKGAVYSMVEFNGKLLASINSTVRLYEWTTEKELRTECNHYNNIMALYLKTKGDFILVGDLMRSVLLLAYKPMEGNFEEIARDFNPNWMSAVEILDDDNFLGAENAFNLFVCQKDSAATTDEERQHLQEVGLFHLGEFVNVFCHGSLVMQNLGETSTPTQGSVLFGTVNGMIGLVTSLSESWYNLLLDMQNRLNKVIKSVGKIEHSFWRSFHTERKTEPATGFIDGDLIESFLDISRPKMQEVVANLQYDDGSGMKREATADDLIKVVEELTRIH

As usually defined, the IC50 is the concentration that inhibits the measured activity by half. Usually inhibition stands for the relative decrease from the control value, in per cent. The low end stands for a response near the control, the high end for a response far below the control. Compound `O=C1CCC(N2C(=O)c3ccc(N4CC(CCN5CCCN(c6cccc(-c7cnc8[nH]ncc8c7)c6)C5=O)C4)cc3C2=O)C(=O)N1` (stereo not drawn) [Compound 25, 2-(2,6-dioxopiperidin-3-yl)-5-(3-{2-[2-oxo-3-(3-{1H-pyrazolo[3,4-b]pyridin-5-yl}phenyl)-1,3-diazinan-1-yl]ethyl}azetidin-1-yl)isoindole-1,3-dione] came in with an IC50 in the experiment on HL-60 cells of 137 nM. Also, at GSPT1 protein, the inhibition at 0.1 µM turned out to be 55% and testing at 1 µM gave an inhibition of 57%.
Turning to `O=C1CCC(N2C(=O)c3ccc(N4CCC(CN5CCCN(c6cccc(C7CC7)c6)C5=O)CC4)cc3C2=O)C(=O)N1` (stereo not drawn) [Compound 15, 5-(4-((3-(3-cyclopropylphenyl)-2-oxotetrahydropyrimidin-1(2H)-yl)methyl)piperidin-1-yl)-2-(2,6-dioxopiperidin-3-yl)isoindoline-1,3-dione], the IC50 in the experiment on HL-60 cells was determined as 290 nM. At GSPT1 protein, this compound had an inhibition at 0.1 µM of 30% and an inhibition at 1 µM of 57%.
Regarding `O=C1CCC(N2C(=O)c3ccc(N4CCC(CN5CCCN(c6ccc7ncccc7c6)C5=O)CC4)cc3C2=O)C(=O)N1` (stereo not drawn) [Compound 11, 2-(2,6-dioxopiperidin-3-yl)-5-(4-((2-oxo-3-(quinolin-6-yl)tetrahydropyrimidin-1(2H)-yl)methyl)piperidin-1-yl)isoindoline-1,3-dione], the IC50 in the experiment on HL-60 cells was over 1000 nM. At GSPT1 protein, this compound returned an inhibition at 0.1 µM of 14% and an inhibition at 1 µM of under 5%.
For `O=C1CCC(N2C(=O)c3ccc(N4CCC(CN5CCCN(c6ccccc6)C5=O)CC4)cc3C2=O)C(=O)N1` (stereo not drawn) [Compound 1, 2-(2,6-dioxopiperidin-3-yl)-5-{4-[(2-oxo-3-phenyl-1,3-diazinan-1-yl)methyl]piperidin-1-yl}isoindole-1,3-dione] the same measures were 1460 nM, 45% and 51%.
`CCc1c[nH]c2ccc(-c3cccc(N4CCCN(CCC5CN(c6ccc7c(c6)C(=O)N(C6CCC(=O)NC6=O)C7=O)C5)C4=O)c3)c(Cl)c12` (stereo not drawn) [Compound 26, 5-(3-(2-(3-(3-(4-chloro-3-ethyl-1H-indol-5-yl)phenyl)-2-oxotetrahydropyrimidin-1(2H)-yl)ethyl)azetidin-1-yl)-2-(2,6-dioxopiperidin-3-yl)isoindoline-1,3-dione] registered an IC50 with HL-60 cells of 78 nM. On GSPT1 protein, at 0.1 µM the inhibition was 63% and the inhibition at 1 µM was 85%.
In the experiment on HL-60 cells, `O=C1CCC(N2C(=O)c3ccc(N4CC(CCN5CCCN(c6cccc(-c7cnc8c(cnn8C8CC8)c7)c6)C5=O)C4)cc3C2=O)C(=O)N1` (stereo not drawn) [Compound 22, 5-(3-(2-(3-(3-(1-cyclopropyl-1H-pyrazolo[3,4-b]pyridin-5-yl)phenyl)-2-oxotetrahydropyrimidin-1(2H)-yl)ethyl)azetidin-1-yl)-2-(2,6-dioxopiperidin-3-yl)isoindoline-1,3-dione] returned an IC50 of over 1000 nM. Besides, at GSPT1 protein, the inhibition at 0.1 µM is 29% and the inhibition at 1 µM worked out at 29%.
In the experiment on HL-60 cells, `CCc1c[nH]c2ncc(-c3cccc(N4CCCN(CCC5CN(c6ccc7c(c6)C(=O)N(C6CCC(=O)NC6=O)C7=O)C5)C4=O)c3)c(Cl)c12` (stereo not drawn) [Compound F, 5-(3-(2-(3-(3-(4-chloro-3-ethyl-1H-pyrrolo[2,3-b]pyridin-5-yl)phenyl)-2-oxotetrahydropyrimidin-1(2H)-yl)ethyl)azetidin-1-yl)-2-(2,6-dioxopiperidin-3-yl)isoindoline-1,3-dione] yielded an IC50 of 9.2 nM. On GSPT1 protein, at 0.1 µM the inhibition was 86% and at 1 µM the inhibition was 95%.
The corresponding values for `CCc1c[nH]c2ncc(-c3cccc(N4CCCN(CC5CCN(c6ccc7c(c6)C(=O)N(C6CCC(=O)NC6=O)C7=O)CC5)C4=O)c3)c(Cl)c12` (stereo not drawn) [Compound A, 5-(4-((3-(3-(4-chloro-3-ethyl-1H-pyrrolo[2,3-b]pyridin-5-yl)phenyl)-2-oxotetrahydropyrimidin-1(2H)-yl)methyl)piperidin-1-yl)-2-(2,6-dioxopiperidin-3-yl)isoindoline-1,3-dione] are 10 nM, 85% and over 95%.
For `O=C1CCC(N2C(=O)c3ccc(N4CC(CCN5CCCN(c6cccc(Br)c6)C5=O)C4)cc3C2=O)C(=O)N1` (stereo not drawn) [Compound 10, 5-(3-(2-(3-(3-bromophenyl)-2-oxotetrahydropyrimidin-1(2H)-yl)ethyl)azetidin-1-yl)-2-(2,6-dioxopiperidin-3-yl)isoindoline-1,3-dione] the same measures were 144 nM, 40% and 45%.
For `O=C1CCC(N2C(=O)c3ccc(N4CC(CCN5CCCN(c6cccc(-c7cnccc7Cl)c6)C5=O)C4)cc3C2=O)C(=O)N1` (stereo not drawn) [Compound 8, 5-(3-(2-(3-(3-(4-chloropyridin-3-yl)phenyl)-2-oxotetrahydropyrimidin-1(2H)-yl)ethyl)azetidin-1-yl)-2-(2,6-dioxopiperidin-3-yl)isoindoline-1,3-dione] the same measures were 196 nM, 70% and 63%.
`O=C1CCC(N2C(=O)c3ccc(N4CCC(CN5CCCCN(c6ccccc6)C5=O)CC4)cc3C2=O)C(=O)N1` (stereo not drawn) [Compound 6, 2-(2,6-dioxopiperidin-3-yl)-5-(4-((2-oxo-3-phenyl-1,3-diazepan-1-yl)methyl)piperidin-1-yl)isoindoline-1,3-dione] came in with an IC50 in the experiment on HL-60 cells of 400 nM. On GSPT1 protein, this compound registered an inhibition at 0.1 µM of 46% and an inhibition at 1 µM of 52%.
For `CCc1c[nH]c2ccc(-c3cccc(N4CCCN(CCC5CN(c6ccc7c(c6)C(=O)N(C6CCC(=O)NC6=O)C7=O)C5)C4=O)c3)nc12` (stereo not drawn) [Compound 27, 2-(2,6-dioxopiperidin-3-yl)-5-(3-{2-[3-(3-{3-ethyl-1H-pyrrolo[3,2-b]pyridin-5-yl}phenyl)-2-oxo-1,3-diazinan-1-yl]ethyl}azetidin-1-yl)isoindole-1,3-dione] the same measures were 397 nM, 45% and 70%.
For `O=C1CCC(N2C(=O)c3cc(F)c(N4CCC(CCN5CCCN(c6cccc(-c7cnc8[nH]cc(C9CC9)c8c7Cl)c6)C5=O)CC4)cc3C2=O)C(=O)N1` (stereo not drawn) [Compound B, 5-(4-(2-(3-(3-(4-chloro-3-cyclopropyl-1H-pyrrolo[2,3-b]pyridin-5-yl)phenyl)-2-oxotetrahydropyrimidin-1(2H)-yl)ethyl)piperidin-1-yl)-2-(2,6-dioxopiperidin-3-yl)-6-fluoroisoindoline-1,3-dione] the same measures were 122 nM, 45% and 75%.
In the experiment with HL-60 cells, `O=C1CCC(N2Cc3cc(N4CCC(CN5CCCN(c6ccccc6)C5=O)CC4)ccc3C2=O)C(=O)N1` (stereo not drawn) [Compound 19, 3-(1-oxo-5-(4-((2-oxo-3-phenyltetrahydropyrimidin-1(2H)-yl)methyl)piperidin-1-yl)isoindolin-2-yl)piperidine-2,6-dione] had a 50% inhibitory concentration (IC50) of over 1000 nM. Also, on GSPT1 protein, the inhibition at 0.1 µM came out at 15% and the inhibition at 1 µM is 38%.

Source of the values: patent US20260108521A1, “GSPT1 DEGRADERS, COMPOSITIONS COMPRISING THE DEGRADER, AND METHODS OF USING THE SAME” (BIOFRONT LTD, priority 2022, published 2026).
